Data as given in US20240174690A1, “ANNULATED 2-AMINO-3-CYANO THIOPHENES AND DERIVATIVES FOR THE TREATMENT OF CANCER” (BOEHRINGER INGELHEIM INTERNATIONAL GMBH, priority 2021, published 2024).
Where two headings read alike, the source gives them in different places.

How the values were obtained:
NCI-H2122 cells = assay: NCI-H2122 CTG proliferation assay (120 h) (NSCLC, G12C); format: cell-based; conditions: Homo sapiens
How it was run: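 NCI-H2122 cells (KRAS G12C NSCLC), 200 per well in RPMI with 10% FCS, were dosed with compound on day 1 and incubated 120 h at 37 °C. Viability was read by CellTiter-Glo luminescence as percent of DMSO control, and IC50 was fitted with a four-parameter model.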

CYP3A4 = CYP3A4 (Homo sapiens (Human), UniProt P08684); assay: Mechanism based inhibition of CYP3A4 assay (MBI 3A4); format: in vitro ADME; conditions: hydroxy-midazolam formation after 30 min vs 0 min preincubation, 25 uM, human liver microsomes
Sequence of CYP3A4 (P08684 whole entry): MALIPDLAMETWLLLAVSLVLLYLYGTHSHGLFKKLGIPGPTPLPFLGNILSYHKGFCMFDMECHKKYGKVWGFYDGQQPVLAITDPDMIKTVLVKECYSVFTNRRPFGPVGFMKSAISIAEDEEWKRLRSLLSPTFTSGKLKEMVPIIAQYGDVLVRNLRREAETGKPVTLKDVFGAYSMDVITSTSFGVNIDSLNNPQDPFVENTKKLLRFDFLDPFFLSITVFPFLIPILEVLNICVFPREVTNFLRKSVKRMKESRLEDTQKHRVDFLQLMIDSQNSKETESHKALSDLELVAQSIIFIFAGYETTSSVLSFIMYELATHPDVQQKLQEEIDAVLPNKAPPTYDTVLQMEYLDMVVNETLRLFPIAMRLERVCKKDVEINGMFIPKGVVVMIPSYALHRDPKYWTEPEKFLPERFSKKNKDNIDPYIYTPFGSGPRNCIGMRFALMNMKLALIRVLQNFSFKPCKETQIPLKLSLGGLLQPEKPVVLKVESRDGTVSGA
How it was run: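 Human CYP3A4 activity after 30 min vs 0 min preincubation with test compound; incubate then diluted 1:10 and midazolam added for a 15 min main incubation. Quenched with acetonitrile; hydroxy-midazolam quantified by LC/MS-MS and expressed as % of the 0 min preincubation formation.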

[1] = Caco-2 assay (permeability PappAB, PappBA, efflux ratio); format: in vitro ADME; conditions: human, Caco-2, 10 μM test compound, pH 7.4; for efflux ratio at 90 min, 10 μM: efflux ratio PappBA/PappAB, read-out: Caco ER; for Papp A→B at 90 min, 10 μM: apical to basolateral
How it was run: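 Confluent Caco-2 monolayers on filter supports, 0.25% BSA in both donor and receiver buffer; transport measured a-b and b-a. After 25-30 min preincubation at 37 °C, samples at 0, 30, 60, 90 min quantified by HPLC/MS/MS. Papp from receiver amount per time, filter area and initial donor concentration; efflux ratio = PappBA/PappAB.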

MKN1 cells = assay: MKN1 CTG proliferation assay (120 h) (gastric cancer, wt amplified); format: cell-based; conditions: Homo sapiens
Protocol: MKN1 CTG Proliferation Assay (120 h) (Gastric Cancer, Wt Amplified)
MKN1 cells (JCRB0252) are dispensed into white 384-well plates, flat and white bottom (Corning Costar, PNr.: 3570) at a density of 400 cells per well in 50 μL RPMI 1640 (PAN-Biotech, PNr.: P04-18047)+10% FCS (HyClone, PNr.: SH30084.03) (assay 1) or into white 384-well plates, flat and white bottom (Perkin Elmer, 6007680) at a density of 500 cells per well in 40 μl RPMI (Gibco, PNr.: 21875034)+10% FCS (HyClone, PNr.: SH30084.03) (assay 2) or into black 384-well plates, flat and clear bottom (Greiner, PNr. 781091) at a density of 200 cells per well in 60 μl RPMI-1640 (Gibco #A10491)+10% FCS (HyClone, PNr.: SH30084.03)+PenStrep (Gibco, PNr.15140-122) (assay 3). […] Compounds (10 mM stock in DMSO) are added at logarithmic dose series using the HP Digital Dispenser D300 (Tecan) (assay 1+2) or the ECHO acoustic liquid handler system (Beckman Coulter) (assay 3), including DMSO controls and normalizing for added DMSO. Plates are incubated for 120 h, and cell viability is measured using CellTiter-Glo luminescent cell viability reagent (Promega product code G7570). Viability (stated as percent of control) is defined as relative luminescence units RLU of each well divided by the RLU of cells in DMSO controls. IC50 values are determined from viability measurements by non-linear regression using a four-parameter model.

[2] = MKN-1, assay 1, CTG 120 h, read-out: MKN1 (assay 1) IC50
[3] = MKN-1, assay 3, CTG 120 h, read-out: MKN1 (assay 3) IC50

SMILES | IC50 (NCI-H2122 cells) [nM] | efflux ratio at 90 min, 10 μM [1] | Papp A→B at 90 min, 10 μM [1] [×10⁻⁶ cm/s] | IC50 (MKN1 cells; [3]) [nM] | also measured
C[C@H](Oc1cc(-n2cncc3ccnc2-3)nc(-c2onc3c2CCC[C@@]32CCCc3sc(N)c(C#N)c32)n1)[C@@H]1CCCN1C [I-14] | 2870 | 0.8 |  |  | MBI 3A4 (CYP3A4): 83%
CO[C@@H]1C[C@@H]([C@H](C)Oc2cc(-c3cnn(C)n3)nc(-c3onc4c3CCC[C@@]43CCCc4sc(N)c(C#N)c43)n2)N(C)C1 [I-17] | 4230 |  |  |  | 
C[C@H](Oc1cc(-n2cncn2)nc(-c2onc3c2CCC[C@@]32CCCc3sc(N)c(C#N)c32)n1)[C@@H]1CCCN1C [I-18] | 1760 | 1.2 | 17 |  | MBI 3A4 (CYP3A4): 58%
C[C@H](Oc1cc(N2Cc3cnn(C)c3C2)nc(-c2onc3c2CCC[C@@]32CCCc3sc(N)c(C#N)c32)n1)[C@@H]1CCCN1C [I-19] | 2710 |  |  |  | 
C[C@H](Oc1cc(-n2cc(-c3cncs3)nn2)nc(-c2noc3c2CCC[C@@]32CCCc3sc(N)c(C#N)c32)n1)[C@@H]1CCCN1C [II-125] | 768 | 1.3 |  |  | MBI 3A4 (CYP3A4): 68%
C[C@H](Oc1cc(-n2cnc(C(=O)N(C)C)c2)nc(-c2noc3c2CCC[C@@]32CCCc3sc(N)c(C#N)c32)n1)[C@@H]1CCCN1C [II-126] | 2690 | 11 | 2 |  | MBI 3A4 (CYP3A4): 56%
C[C@H](Oc1cc(-c2ccn([C@H]3CCOC3)n2)nc(-c2noc3c2CCC[C@@]32CCCc3sc(N)c(C#N)c32)n1)[C@@H]1CCCN1C [II-127] | 189 | 4.1 | 5.9 |  | MBI 3A4 (CYP3A4): 74%
C[C@H](Oc1cc(-c2ccn(Cc3ncco3)n2)nc(-c2noc3c2CCC[C@@]32CCCc3sc(N)c(C#N)c32)n1)[C@@H]1CCCN1C [II-128] | 361 |  |  |  | MBI 3A4 (CYP3A4): 60%
C[C@H](Oc1cc(-c2ccn(C[C@H]3CCOC3)n2)nc(-c2noc3c2CCC[C@@]32CCCc3sc(N)c(C#N)c32)n1)[C@@H]1CCCN1C [II-129] | 198 | 5.2 | 4.2 |  | MBI 3A4 (CYP3A4): 74%
C[C@H](Oc1cc(-n2nccc2-c2ccncc2)nc(-c2noc3c2CCC[C@@]32CCCc3sc(N)c(C#N)c32)n1)[C@@H]1CCCN1C [II-131] | 672 | 0.9 |  |  | 
C[C@H](Oc1cc(-n2cc(C(=O)N(C)C)nn2)nc(-c2noc3c2CCC[C@@]32CCCc3sc(N)c(C#N)c32)n1)[C@@H]1CCCN1C [II-132] | 188 | 4.9 | 6.8 |  | MBI 3A4 (CYP3A4): 70%
C[C@H](O)Cn1ncc(-c2cc(O[C@@H](C)[C@@H]3CCCN3C)nc(-c3noc4c3CCC[C@@]43CCCc4sc(N)c(C#N)c43)n2)n1 [II-134] | 4120 | 8 | 4 |  | MBI 3A4 (CYP3A4): 76%
C[C@H]1CNCCCN1c1cc(-c2ccn(C)n2)nc(-c2noc3c2CCC[C@@]32CCCc3sc(N)c(C#N)c32)n1 [II-140] | 8240 |  |  |  | 
C[C@H]1CNCCCN1c1cc(-n2ccnc2)nc(-c2noc3c2CCC[C@@]32CCCc3sc(N)c(C#N)c32)n1 [II-142] | 10500 |  |  |  | 
C[C@H](Oc1cc(N2CC3COCC(C2)N3)nc(-c2noc3c2CCC[C@@]32CCCc3sc(N)c(C#N)c32)n1)[C@@H]1CCCN1C [II-160] | 3190 |  |  |  | 
C[C@@H]1CN(c2cc(O[C@@H](C)[C@@H]3CCCN3C)nc(-c3noc4c3CCC[C@@]43CCCc4sc(N)c(C#N)c43)n2)CCN1 [II-161] | 4850 | 47.6 | 0.4 |  | 
C[C@H](Oc1cc([C@H]2CCNC2)nc(-c2noc3c2CCC[C@@]32CCCc3sc(N)c(C#N)c32)n1)[C@@H]1CCCN1C [II-163] | 4500 |  |  |  | 
CC(C)[C@@H]1CN(c2cc(O[C@@H](C)[C@@H]3CCCN3C)nc(-c3noc4c3CCC[C@@]43CCCc4sc(N)c(C#N)c43)n2)CCN1 [II-166] | 1250 |  |  |  | 

SMILES | IC50 (NCI-H2122 cells) [nM] | efflux ratio at 90 min, 10 μM [1] | Papp A→B at 90 min, 10 μM [1] [×10⁻⁶ cm/s] | IC50 (MKN1 cells; [3]) [nM] | also measured
C[C@H](Oc1cc(N2C[C@@H]3[C@@H](N)[C@@H]3C2)nc(-c2noc3c2CCC[C@@]32CCCc3sc(N)c(C#N)c32)n1)[C@@H]1CCCN1C [II-167] | 9790 | 82.1 | 0.3 |  | 
CC(C)N1CCCN(c2cc(-c3ccn(C)n3)nc(-c3noc4c3CCC[C@@]43CCCc4sc(N)c(C#N)c43)n2)[C@@H](C)C1 [II-170] | 942 | 7 | 3.3 |  | MBI 3A4 (CYP3A4): 70%
CC(=O)N1CCN(c2cc(O[C@@H](C)[C@@H]3CCCN3C)nc(-c3noc4c3CCC[C@@]43CCCc4sc(N)c(C#N)c43)n2)CC12CC2 [II-178] | 948 |  |  |  | 
CC(C)NC(=O)Cc1ccn(-c2cc(O[C@@H](C)[C@@H]3CCCN3C)nc(-c3noc4c3CCC[C@@]43CCCc4sc(N)c(C#N)c43)n2)n1 [II-182] |  | 5.5 | 7.1 | 12 | IC50 (MKN1 cells; [2]): 24 nM
CO[C@H]1CCN(C)[C@@H]1[C@H](C)Oc1cc(-n2ccc(CC(=O)NC(C)C)n2)nc(-c2noc3c2CCC[C@@]32CCCc3sc(N)c(C#N)c32)n1 [II-183] |  |  |  | 41 | 
CO[C@H]1CCN(C)[C@@H]1[C@H](C)Oc1cc(N2CCNC3(CC3)C2)nc(-c2noc3c2CCC[C@@]32CCCc3sc(N)c(C#N)c32)n1 [II-184] |  | 2.3 |  | 68 | IC50 (MKN1 cells; MKN-1, assay 2, CTG 120 h, read-out: MKN1 (assay 2) IC50): 227 nM
C[C@H](Oc1cc(-n2ccc(C3(O)COC3)n2)nc(-c2noc3c2CCC[C@@]32CCCc3sc(N)c(C#N)c32)n1)[C@@H]1CCCN1C [II-189] |  | 5.8 | 7.9 | 18 | IC50 (MKN1 cells; [2]): 19 nM
C[C@H](NC(=O)c1ccn(-c2cc(O[C@@H](C)[C@@H]3CCCN3C)nc(-c3noc4c3CCC[C@@]43CCCc4sc(N)c(C#N)c43)n2)n1)c1ccccn1 [II-191] |  | 2.5 |  |  | 
C[C@H](Oc1cc(-n2ccc(C(=O)N(C)C3COC3)n2)nc(-c2noc3c2CCC[C@@]32CCCc3sc(N)c(C#N)c32)n1)[C@@H]1CCCN1C [II-194] |  | 2.6 | 11 | 25 | IC50 (MKN1 cells; [2]): 20 nM
CO[C@H]1CCN(C)[C@@H]1[C@H](C)Oc1cc(-n2ccc(C(=O)N[C@@H](C)c3ccccn3)n2)nc(-c2noc3c2CCC[C@@]32CCCc3sc(N)c(C#N)c32)n1 [II-196] |  |  |  | 17 | 
CO[C@H]1CCN(C)[C@@H]1[C@H](C)Oc1cc(-n2ccc(C(=O)N[C@@H]3CCOC3)n2)nc(-c2noc3c2CCC[C@@]32CCCc3sc(N)c(C#N)c32)n1 [II-197] |  |  |  | 16 | 
CO[C@H]1CCN(C)[C@@H]1[C@H](C)Oc1cc(-n2ccc(C(=O)N[C@H]3CCOC3)n2)nc(-c2noc3c2CCC[C@@]32CCCc3sc(N)c(C#N)c32)n1 [II-198] |  |  |  | 15 | 
CO[C@H]1CCN(C)[C@@H]1[C@H](C)Oc1cc(-n2ccc(C(=O)N(C)C3COC3)n2)nc(-c2noc3c2CCC[C@@]32CCCc3sc(N)c(C#N)c32)n1 [II-199] |  |  |  | 51 | 
COCCNC(=O)c1ccn(-c2cc(O[C@@H](C)[C@@H]3[C@@H](OC)CCN3C)nc(-c3noc4c3CCC[C@@]43CCCc4sc(N)c(C#N)c43)n2)n1 [II-200] |  |  |  | 11 | 
CO[C@H]1CCN(C)[C@@H]1[C@H](C)Oc1cc(-n2ccc(C(N)=O)n2)nc(-c2noc3c2CCC[C@@]32CCCc3sc(N)c(C#N)c32)n1 [II-201] |  | 1.8 | 18 | 14 | IC50 (MKN1 cells; [2]): 20 nM
C[C@H](Oc1cc(-n2cc3ccn([C@@H](C)c4ccccn4)c(=O)c3n2)nc(-c2noc3c2CCC[C@@]32CCCc3sc(N)c(C#N)c32)n1)[C@@H]1CCCN1C [II-205] |  |  |  | 33 | 
[2H]C([2H])([2H])N1C[C@H](F)C[C@H]1[C@H](C)Oc1cc(N2CCN(C([2H])([2H])[2H])C3(CC3)C2)nc(-c2noc3c2CCC[C@@]32CCCc3sc(N)c(C#N)c32)n1 [II-207] |  |  |  | 785 | 
